Changes are numbered by the printed parent chain.
Tests used:
hA1AR S246T^6.47 [1] = target: T1, hA1AR S246T^6.47 (Homo sapiens, UniProt P30542, S246T); conditions: ratio over basal activity of wild type hA1AR; yeast; 7 mM 3-AT
T1 sequence (P30542 1-326 S246T): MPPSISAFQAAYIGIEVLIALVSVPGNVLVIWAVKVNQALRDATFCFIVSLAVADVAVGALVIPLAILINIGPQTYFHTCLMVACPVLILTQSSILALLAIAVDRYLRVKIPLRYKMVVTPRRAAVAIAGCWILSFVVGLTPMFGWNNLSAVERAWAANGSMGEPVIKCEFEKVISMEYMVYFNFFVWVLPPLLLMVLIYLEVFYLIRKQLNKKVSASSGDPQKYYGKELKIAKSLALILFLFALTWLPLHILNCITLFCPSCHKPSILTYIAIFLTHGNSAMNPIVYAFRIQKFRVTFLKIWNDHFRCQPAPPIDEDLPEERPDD
Description: The plasmids, pDT-PGK_hA1AR, containing either wild type or mutated hA1AR were transformed into a MMY24 S. cerevisiae strain following the lithium acetate procedure.
In order to characterize the mutant hA1ARs, liquid growth assays in 96-well plates were performed to obtain concentration–growth curves as previously described. […] The overnight cultures were then diluted to 40,000 cells/mL (OD600 ≈ 0.02) in a selective medium without uracil, leucine, and histidine (YNB-ULH). For the determination of constitutive activity, 50 μL of yeast cells and 150 μL of YNB-ULH medium containing different concentrations of 3-AT and 0.8 IU/mL ADA were then added to each well. […] After incubation at 30 °C for 35 h in a Genios plate reader (TECAN, Zürich, Switzerland) with shaking for 1 min at 300 rpm every 10 min, the optical density was measured at a wavelength of 595 nm, which represented the level of yeast cell growth.
All experimental data were analyzed by GraphPad Prism 7.0 or 8.0 (GraphPad Software Inc., San Diego, CA, USA). Data from yeast liquid growth and [^35S]GTPγS binding assays were analyzed by non-linear regression using “log (agonist) vs. response (three parameters)” or “log (inhibitor) vs. response (three parameters)” to obtain potency (EC50), inhibitory potency (IC50), and efficacy (Emax or Imax) values. […]

hA1AR H78L^3.23 = target: T2, hA1AR H78L^3.23 (Homo sapiens, UniProt P30542, H78L); assay: [3H]DPCPX radioligand displacement assay, CHO membranes; assay type: binding; parameters: expressed in transfected cells; host or cells: CHO cells, transient; membranes; conditions: fraction of high-affinity state; two-site model
T2 sequence (P30542 1-326 H78L): T1 sequence (P30542 1-326 S246T) with H78L, T246S
Description: (§1) Transient transfection of CHO cells with wild type or mutated hA1AR plasmid constructs was performed using a polyethylenimine (PEI) method. Cells were seeded in 10-cm culture dishes to achieve 50–60% confluency 24 h prior to transfection. On the day of transfection, cells were transfected with a PEI: DNA ratio of 3:1 and a plasmid DNA amount of 10 μg/dish. Moreover, 24 h post-transfection, the medium was refreshed, and 48 h after transfection, cells were collected and membranes were prepared as previously described. Membranes were aliquoted in 250 or 100 μL and stored at −80 °C. Membrane protein concentrations were determined using the BCA method.
(§2) The displacement assays were performed as described previously. […] Note, the number of cell membranes (10–25 µg) was adjusted to obtain (approximately) a 1500 DPM assay window for each mutant. […] Incubations were terminated after 1 h at 25 °C by rapid vacuum filtration through GF/B filter plates (PerkinElmer, Groningen, Netherlands) using a Perkin Elmer Filtermate-harvester. Afterward, filter plates were washed ten times with ice-cold buffer (50 mM Tris-HCl, pH 7.4) and dried at 55 °C for 30 min. After the addition of 25 µL per well of the Microscint scintillation cocktail (PerkinElmer, Groningen, The Netherlands), the filter-bound radioactivity was measured by scintillation spectrometry in a Microbeta2® 2450 microplate counter (PerkinElmer).
(§3) All experimental data were analyzed by GraphPad Prism 7.0 or 8.0 (GraphPad Software Inc., San Diego, CA, USA). Data from yeast liquid growth and [^35S]GTPγS binding assays were analyzed by non-linear regression using “log (agonist) vs. response (three parameters)” or “log (inhibitor) vs. response (three parameters)” to obtain potency (EC50), inhibitory potency (IC50), and efficacy (Emax or Imax) values. The radioligand displacement curves were obtained from a statistically preferred one-site or two-site binding model. pKi values were calculated from pIC50 values using the Cheng–Prusoff equation, where KD values were obtained from the homologous competition assays from this study and calculated by non-linear regression using “one site–homologous” [62].

hA1AR W188C^5.46 = target: T3, hA1AR W188C^5.46 (Homo sapiens, UniProt P30542, W188C); assay: as above; assay type: binding; parameters: expressed in transfected cells; host or cells: CHO cells, transient; membranes; conditions: fraction of high-affinity state; two-site model
T3 sequence (P30542 1-326 W188C): T1 sequence (P30542 1-326 S246T) with W188C, T246S
Description: as §1, §2, §3

hA1AR S246T^6.47 [2] = target: T1, hA1AR S246T^6.47; assay: as above; assay type: binding; parameters: expressed in transfected cells; host or cells: CHO cells, transient; membranes; conditions: fraction of high-affinity state; two-site model
Description: as §1, §2, §3

In the case of `OC[C@H]1O[C@@H](n2cnc3c(NC4CCCC4)ncnc32)[C@H](O)[C@@H]1O` [CPA, N^6-cyclopentyladenosine], the Emax (hA1AR S246T^6.47 [1]) is reported as 4.81 ± 0.26, the “Fraction (High)” value (hA1AR H78L^3.23) is reported as 0.33 ± 0.04 and the “Fraction (High)” value (hA1AR W188C^5.46) is reported as 0.29 ± 0.01. For the same compound, the “Fraction (High)” value (hA1AR S246T^6.47 [2]) was 0.26 ± 0.03.
